The values that follow come from patent US6830885B1, “Nucleic acid molecule, method and kit for selecting a nucleic acid having a desired feature” (priority 2000, dated 2004).

Where two headings read alike, the source gives them in different places.

Assay [1] deals with Sindbis viral particles. The assay is described as follows: Virus production from BHK-21 cells infected with VB222-derived Sindbis viral particles under drug treatment. Type of assay: cell-based. The following applies: multiplicity of infection 0.05, viral particles collected 6 hours later. How it is done:
The viral genome was transcribed from plasmid VB222. The exogenous nucleic acid encodes GFP to facilitate detection of transfected and/or infected cells. BHK-21 cells were transfected with said viral genome and viral particles were collected 34 hours later. These viral particles were tittered by standard plaque assay and used to infect BHK-21 cells at a multiplicity of infection of 0.05. The medium was changed one hour post-infection. Drugs were added one hour post-infection at a concentration of 200 nM (okadaic acid) or 30 μg/ml (cerulenin) and viral particles were collected 6 hours later. […] Treatment with the drug could be maintained while propagating the viral particles, thereby further decreasing the number of viral particles produced from viral genomes expressing an exogenous nucleic acid encoding a peptide or protein that is not involved in drug-resistance.

For assay [2], the system named is Sindbis-infected BHK-21 cells. The following applies: cited from earlier work.

Take `C/C=C/C/C=C/CCC(=O)[C@H]1O[C@H]1C(N)=O` [cerulenin]: in assay [1] (cerulenin 30 μg/ml added one hour post-infection), the “decrease in virus production” value was 39 fold. Besides, the “production of viral particles” value in assay [2] (30 μg/ml) is on record as “impairs production of viral particles”.

Regarding `C=C1[C@@H](O)[C@@H]2O[C@]3(CC[C@H](/C=C/[C@@H](C)[C@@H]4CC(C)=C[C@@]5(O[C@H](C[C@@](C)(O)C(=O)O)CC[C@H]5O)O4)O3)CC[C@H]2O[C@@H]1[C@@H](O)C[C@H](C)[C@H]1O[C@@]2(CCCCO2)CC[C@H]1C` [okadaic acid], in assay [1] (okadaic acid 200 nM added one hour post-infection), the “decrease in virus production” value is recorded as 13 fold. Also, the “production of viral particles” value in assay [2] (200 nM) is “impairs production of viral particles”.
